Assay results taken from patent publication US20150038438A1, “ANTIBACTERIAL COMPOUNDS AND METHODS FOR USE” (PTC THERAPEUTICS, INC., priority 2011, published 2015).
Values after ≈ are worked out from the molar mass of the structure shown.

How the values were obtained:
Assay in all cases: Antibacterial activity, microbroth dilution method (MIC)
[1] = test system: control Gram-negative E. coli 25922 strain; type: cell-based, Escherichia coli; details: Escherichia coli
In short: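 Growth inhibition by microbroth dilution. MIC = lowest μg/mL with no visible growth. Strain 25922 is the control Gram-negative; BAS849 is hypersensitive.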

[2] = test system: Gram-positive Staphylococcus aureus (S. aureus) 29213; type: cell-based; details: Staphylococcus aureus, Gram-positive S. aureus 29213
In short: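 Values are MICs (μg/mL): the smallest drug amount at which macroscopically visible bacterial growth is absent under assay conditions, from a microdilution method in broth.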

[3] = test system: super sensitive Gram-negative Escherichia coli (E. coli) BAS849; type: cell-based; details: Escherichia coli; super sensitive Gram-negative E. coli BAS849; microbroth dilution; read-out: MIC, E. coli BAS849
In short: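 Broth microdilution against S. aureus 29213, E. coli 25922 and hypersensitive E. coli BAS849. MIC in μg/mL is the lowest drug concentration preventing macroscopically visible growth under test conditions.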

Row | SMILES | MIC [1] [µg/mL] | MIC [2] [µg/mL] | MIC [3] [µg/mL]
1 | CCC(C)NCc1cc2cc3c(cc2n1C)OCCc1c-3[nH]c(=O)c(C(=O)O)c1O.Cl (stereo not drawn) [Cpd 168, 10-((sec-butylamino)methyl)-4-hydroxy-9-methyl-2-oxo-2,5,6,9-tetrahydro-1H-pyrido[2′,3′:4,5]oxepino[3,2-f]indole-3-carboxylic acid hydrochloride] | < 1 | 3.5 to 12.5 | < 1
2 | CCCNCc1cc2cc3c(cc2n1C)OCCc1c-3[nH]c(=O)c(C(=O)O)c1O.Cl [Cpd 169, 4-hydroxy-9-methyl-2-oxo-10-((propylamino)methyl)-2,5,6,9-tetrahydro-1H-pyrido[2′,3′:4,5]oxepino[3,2-f]indole-3-carboxylic acid hydrochloride] | < 1 | 3.5 to 12.5 | < 1
3 | COc1ccc(CNCc2cc3cc4c(cc3n2C)OCCc2c-4[nH]c(=O)c(C(=O)O)c2O)c(OC)c1.Cl [Cpd 170, 10-(((2,4-dimethoxybenzyl)amino)methyl)-4-hydroxy-9-methyl-2-oxo-2,5,6,9-tetrahydro-1H-pyrido[2′,3′:4,5]oxepino[3,2-f]indole-3-carboxylic acid hydrochloride] | 1 to 3.5 | 1 to 3.5 | < 1
4 | Cl.Cn1c(CNC2CC2)cc2cc3c(cc21)OCCc1c-3[nH]c(=O)c(C(=O)O)c1O [Cpd 171, 10-((cyclopropylamino)methyl)-4-hydroxy-9-methyl-2-oxo-2,5,6,9-tetrahydro-1H-pyrido[2′,3′:4,5]oxepino[3,2-f]indole-3-carboxylic acid hydrochloride] | < 1 | 3.5 to 12.5 | < 1
5 | Cl.Cn1c(CNC2CCC2)cc2cc3c(cc21)OCCc1c-3[nH]c(=O)c(C(=O)O)c1O [Cpd 172, 10-((cyclobutylamino)methyl)-4-hydroxy-9-methyl-2-oxo-2,5,6,9-tetrahydro-1H-pyrido[2′,3′:4,5]oxepino[3,2-f]indole-3-carboxylic acid hydrochloride] | < 1 | 3.5 to 12.5 | < 1
6 | CN(C)Cc1cc2cc3c(cc2n1C)OCCc1c-3[nH]c(=O)c(C(=O)O)c1O.Cl [Cpd 173, 10-((dimethylamino)methyl)-4-hydroxy-9-methyl-2-oxo-2,5,6,9-tetrahydro-1H-pyrido[2′,3′:4,5]oxepino[3,2-f]indole-3-carboxylic acid hydrochloride] | < 1 | 12.5 to 150 | < 1
7 | Cl.Cn1c(CN2CCCC2)cc2cc3c(cc21)OCCc1c-3[nH]c(=O)c(C(=O)O)c1O [Cpd 174, 4-hydroxy-9-methyl-2-oxo-10-(pyrrolidin-1-ylmethyl)-2,5,6,9-tetrahydro-1H-pyrido[2′,3′:4,5]oxepino[3,2-f]indole-3-carboxylic acid hydrochloride] | 1 to 3.5 | 12.5 to 150 | < 1
8 | Cl.Cn1c(CNC(C)(C)C)cc2cc3c(cc21)OCCc1c-3[nH]c(=O)c(C(=O)O)c1O [Cpd 175, 10-((tert-butylamino)methyl)-4-hydroxy-9-methyl-2-oxo-2,5,6,9-tetrahydro-1H-pyrido[2′,3′:4,5]oxepino[3,2-f]indole-3-carboxylic acid hydrochloride] | < 1 | 3.5 to 12.5 | < 1
9 | CN1CCN(Cc2cc3cc4c(cc3n2C)OCCc2c-4[nH]c(=O)c(C(=O)O)c2O)CC1.Cl.Cl [Cpd 176, 4-hydroxy-9-methyl-10-((4-methylpiperazin-1-yl)methyl)-2-oxo-2,5,6,9-tetrahydro-1H-pyrido[2′,3′:4,5]oxepino[3,2-f]indole-3-carboxylic acid dihydrochloride] | 3.5 to 12.5 | 12.5 to 150 | < 1
10 | Cl.Cn1c(CNCCO)cc2cc3c(cc21)OCCc1c-3[nH]c(=O)c(C(=O)O)c1O [Cpd 177, 4-hydroxy-10-(((2-hydroxyethyl)amino)methyl)-9-methyl-2-oxo-2,5,6,9-tetrahydro-1H-pyrido[2′,3′:4,5]oxepino[3,2-f]indole-3-carboxylic acid hydrochloride] | 12.5 to 150 | 12.5 to 150 | < 1
11 | CC(CO)NCc1cc2cc3c(cc2n1C)OCCc1c-3[nH]c(=O)c(C(=O)O)c1O.Cl (stereo not drawn) [Cpd 178, 4-hydroxy-10-(((1-hydroxypropan-2-yl)amino)methyl)-9-methyl-2-oxo-2,5,6,9-tetrahydro-1H-pyrido[2′,3′:4,5]oxepino[3,2-f]indole-3-carboxylic acid hydrochloride] | 12.5 to 150 | 12.5 to 150 | < 1
12 | Cl.Cl.Cn1c(CNCCN2CCCC2)cc2cc3c(cc21)OCCc1c-3[nH]c(=O)c(C(=O)O)c1O [Cpd 179, 4-hydroxy-9-methyl-2-oxo-10-(((2-(pyrrolidin-1-yl)ethyl)amino)methyl)-2,5,6,9-tetrahydro-1H-pyrido[2′,3′:4,5]oxepino[3,2-f]indole-3-carboxylic acid dihydrochloride] | 12.5 to 150 | 12.5 to 150 | 12.5 to 150
13 | Cl.Cl.Cn1c(CNCCN)cc2cc3c(cc21)OCCc1c-3[nH]c(=O)c(C(=O)O)c1O [Cpd 180, 10-(((2-aminoethyl)amino)methyl)-4-hydroxy-9-methyl-2-oxo-2,5,6,9-tetrahydro-1H-pyrido[2′,3′:4,5]oxepino[3,2-f]indole-3-carboxylic acid dihydrochloride] | 12.5 to 150 | 12.5 to 150 | 3.5 to 12.5
14 | CNCCNCc1cc2cc3c(cc2n1C)OCCc1c-3[nH]c(=O)c(C(=O)O)c1O.Cl.Cl [Cpd 181, 4-hydroxy-9-methyl-10-(((2-(methylamino)ethyl)amino)methyl)-2-oxo-2,5,6,9-tetrahydro-1H-pyrido[2′,3′:4,5]oxepino[3,2-f]indole-3-carboxylic acid dihydrochloride] | 12.5 to 150 | 12.5 to 150 | 12.5 to 150
15 | CN(C)CCNCc1cc2cc3c(cc2n1C)OCCc1c-3[nH]c(=O)c(C(=O)O)c1O.Cl.Cl [Cpd 182, 10-(((2-(dimethylamino)ethyl)amino)methyl)-4-hydroxy-9-methyl-2-oxo-2,5,6,9-tetrahydro-1H-pyrido[2′,3′:4,5]oxepino[3,2-f]indole-3-carboxylic acid dihydrochloride] | 12.5 to 150 | 12.5 to 150 | 1 to 3.5
16 | COCCNCc1cc2cc3c(cc2n1C)OCCc1c-3[nH]c(=O)c(C(=O)O)c1O.Cl [Cpd 183, 4-hydroxy-10-(((2-methoxyethyl)amino)methyl)-9-methyl-2-oxo-2,5,6,9-tetrahydro-1H-pyrido[2′,3′:4,5]oxepino[3,2-f]indole-3-carboxylic acid hydrochloride] | 1 to 3.5 | 12.5 to 150 | < 1
17 | COCC(C)NCc1cc2cc3c(cc2n1C)OCCc1c-3[nH]c(=O)c(C(=O)O)c1O.Cl (stereo not drawn) [Cpd 184, 4-hydroxy-10-(((1-methoxypropan-2-yl)amino)methyl)-9-methyl-2-oxo-2,5,6,9-tetrahydro-1H-pyrido[2′,3′:4,5]oxepino[3,2-f]indole-3-carboxylic acid hydrochloride] | 3.5 to 12.5 | 12.5 to 150 | < 1
18 | CN(C)c1ccc2c(c1)SCCc1c-2[nH]c(=O)c(C(=O)O)c1O [Cpd 185, 9-(dimethylamino)-4-hydroxy-2-oxo-1,2,5,6-tetrahydrobenzo[2,3]thiepino[4,5-b]pyridine-3-carboxylic acid] | 12.5 to 150 (≈ 37.6 to 451 µM) | 12.5 to 150 (≈ 37.6 to 451 µM) | < 1
19 | O=C(O)c1c(O)c2c([nH]c1=O)-c1ccc(N3CCCC3)cc1SCC2 [Cpd 186, 4-hydroxy-2-oxo-9-(pyrrolidin-1-yl)-1,2,5,6-tetrahydrobenzo[2,3]thiepino[4,5-b]pyridine-3-carboxylic acid] | 12.5 to 150 (≈ 34.9 to 419 µM) | 3.5 to 12.5 (≈ 9.77 to 34.9 µM) | < 1
